Assay results from the supplement of paper PMC10307832.

Key:
Assay in all cases: relative viability (nuclei count vs DMSO), 5 days (fraction); higher = more cells survive
201T = test system: 201T
How it was run: (§1)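 Five library-drug doses in √10 steps were combined with a fixed anchor-drug dose, or a single drug was given alone, by pin tool to lung cancer cell lines in 1536-well plates the day after seeding. Nuclei were stained and counted after 5 days. Relative viability is the nuclei count in treated wells over that in vehicle wells, taken as the median of duplicate plates.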

BEN = test system: BEN
How it was run: as §1

EMC-BAC-2 = test system: EMC-BAC-2
How it was run: as §1

HARA = test system: HARA
How it was run: as §1

HCC-44 = test system: HCC-44
How it was run: as §1

LCLC-103H = test system: LCLC-103H
How it was run: as §1

LOU-NH91 = test system: LOU-NH91
How it was run: as §1

NCI-H1395 = test system: NCI-H1395
How it was run: as §1

NCI-H1993 = test system: NCI-H1993
How it was run: as §1

NCI-H2023 = test system: NCI-H2023
How it was run: as §1

NCI-H2087 = test system: NCI-H2087
How it was run: as §1

NCI-H2126 = test system: NCI-H2126
How it was run: as §1

NCI-H2347 = test system: NCI-H2347
How it was run: as §1

NCI-H23 = test system: NCI-H23
How it was run: as §1

NCI-H3122 = test system: NCI-H3122
How it was run: as §1

NCI-H441 = test system: NCI-H441
How it was run: as §1

NCI-H596 = test system: NCI-H596
How it was run: as §1

NCI-H647 = test system: NCI-H647
How it was run: as §1

NCI-H650 = test system: NCI-H650
How it was run: as §1

NCI-H727 = test system: NCI-H727
How it was run: as §1

NCI-H838 = test system: NCI-H838
How it was run: as §1

CC(=O)O[C@@]12CO[C@@H]1C[C@H](O)[C@@]1(C)C(=O)[C@H](O)C3=C(C)[C@@H](OC(=O)[C@H](O)[C@@H](NC(=O)OC(C)(C)C)c4ccccc4)C[C@@](O)([C@@H](OC(=O)c4ccccc4)[C@H]21)C3(C)C [Docetaxel] + C[C@]1(O)C[C@@H](c2nc(-c3ccc4ccc(-c5ccccc5)nc4c3)c3c(N)nccn32)C1 [Linsitinib] (partner 1 µM)
relative viability (201T; first compound 0.0002 µM): 1.04 | relative viability (201T; first compound 0.000632 µM): 1.07 | relative viability (201T; first compound 0.002 µM): 0.944 | relative viability (201T; first compound 0.006325 µM): 0.48 | relative viability (201T; first compound 0.02 µM): 0.284 | relative viability (BEN; first compound 0.0002 µM): 0.827 | relative viability (BEN; first compound 0.000632 µM): 0.812 | relative viability (BEN; first compound 0.002 µM): 0.473 | relative viability (BEN; first compound 0.006325 µM): 0.246 | relative viability (BEN; first compound 0.02 µM): 0.189 | relative viability (EMC-BAC-2; first compound 0.0002 µM): 0.799 | relative viability (EMC-BAC-2; first compound 0.000632 µM): 0.665 | relative viability (EMC-BAC-2; first compound 0.002 µM): 0.463 | relative viability (EMC-BAC-2; first compound 0.006325 µM): 0.31 | relative viability (EMC-BAC-2; first compound 0.02 µM): 0.207 | relative viability (HARA; first compound 0.0002 µM): 0.739 | relative viability (HARA; first compound 0.000632 µM): 0.482 | relative viability (HARA; first compound 0.002 µM): 0.235 | relative viability (HARA; first compound 0.006325 µM): 0.0978 | relative viability (HARA; first compound 0.02 µM): 0.0632 | relative viability (HCC-44; first compound 0.0002 µM): 0.608 | relative viability (HCC-44; first compound 0.000632 µM): 0.747 | relative viability (HCC-44; first compound 0.002 µM): 0.589 | relative viability (HCC-44; first compound 0.006325 µM): 0.201 | relative viability (HCC-44; first compound 0.02 µM): 0.106 | relative viability (LCLC-103H; first compound 0.0002 µM): 0.934 | relative viability (LCLC-103H; first compound 0.000632 µM): 1.18 | relative viability (LCLC-103H; first compound 0.002 µM): 0.919 | relative viability (LCLC-103H; first compound 0.006325 µM): 0.479 | relative viability (LCLC-103H; first compound 0.02 µM): 0.503 | relative viability (LOU-NH91; first compound 0.0002 µM): 0.967 | relative viability (LOU-NH91; first compound 0.000632 µM): 0.8 | relative viability (LOU-NH91; first compound 0.002 µM): 0.586 | relative viability (LOU-NH91; first compound 0.006325 µM): 0.434 | relative viability (LOU-NH91; first compound 0.02 µM): 0.324 | relative viability (NCI-H1395; first compound 0.0002 µM): 1.05 | relative viability (NCI-H1395; first compound 0.000632 µM): 1.19 | relative viability (NCI-H1395; first compound 0.002 µM): 0.787 | relative viability (NCI-H1395; first compound 0.006325 µM): 0.431 | relative viability (NCI-H1395; first compound 0.02 µM): 0.336 | relative viability (NCI-H1993; first compound 0.0002 µM): 0.796 | relative viability (NCI-H1993; first compound 0.000632 µM): 0.739 | relative viability (NCI-H1993; first compound 0.002 µM): 0.807 | relative viability (NCI-H1993; first compound 0.006325 µM): 0.605 | relative viability (NCI-H1993; first compound 0.02 µM): 0.488 | relative viability (NCI-H2023; first compound 0.0002 µM): 0.703 | relative viability (NCI-H2023; first compound 0.000632 µM): 0.72 | relative viability (NCI-H2023; first compound 0.002 µM): 0.144 | relative viability (NCI-H2023; first compound 0.006325 µM): 0.159 | relative viability (NCI-H2023; first compound 0.02 µM): 0.0739 | relative viability (NCI-H2087; first compound 0.0002 µM): 0.848 | relative viability (NCI-H2087; first compound 0.000632 µM): 0.68 | relative viability (NCI-H2087; first compound 0.002 µM): 0.301 | relative viability (NCI-H2087; first compound 0.006325 µM): 0.326 | relative viability (NCI-H2087; first compound 0.02 µM): 0.156 | relative viability (NCI-H2126; first compound 0.0002 µM): 0.747 | relative viability (NCI-H2126; first compound 0.000632 µM): 0.683 | relative viability (NCI-H2126; first compound 0.002 µM): 0.631 | relative viability (NCI-H2126; first compound 0.006325 µM): 0.402 | relative viability (NCI-H2126; first compound 0.02 µM): 0.291 | relative viability (NCI-H2347; first compound 0.0002 µM): 0.946 | relative viability (NCI-H2347; first compound 0.000632 µM): 0.926 | relative viability (NCI-H2347; first compound 0.002 µM): 0.839 | relative viability (NCI-H2347; first compound 0.006325 µM): 0.622 | relative viability (NCI-H2347; first compound 0.02 µM): 0.517 | relative viability (NCI-H23; first compound 0.0002 µM): 0.579 | relative viability (NCI-H23; first compound 0.000632 µM): 0.572 | relative viability (NCI-H23; first compound 0.002 µM): 0.465 | relative viability (NCI-H23; first compound 0.006325 µM): 0.22 | relative viability (NCI-H23; first compound 0.02 µM): 0.126 | relative viability (NCI-H3122; first compound 0.0002 µM): 1 | relative viability (NCI-H3122; first compound 0.000632 µM): 1 | relative viability (NCI-H3122; first compound 0.002 µM): 0.79 | relative viability (NCI-H3122; first compound 0.006325 µM): 0.349 | relative viability (NCI-H3122; first compound 0.02 µM): 0.218 | relative viability (NCI-H441; first compound 0.0002 µM): 0.405 | relative viability (NCI-H441; first compound 0.000632 µM): 0.27 | relative viability (NCI-H441; first compound 0.002 µM): 0.172 | relative viability (NCI-H441; first compound 0.006325 µM): 0.224 | relative viability (NCI-H441; first compound 0.02 µM): 0.117 | relative viability (NCI-H596; first compound 0.0002 µM): 1.02 | relative viability (NCI-H596; first compound 0.000632 µM): 0.953 | relative viability (NCI-H596; first compound 0.002 µM): 0.754 | relative viability (NCI-H596; first compound 0.006325 µM): 0.761 | relative viability (NCI-H596; first compound 0.02 µM): 0.437 | relative viability (NCI-H647; first compound 0.0002 µM): 0.966 | relative viability (NCI-H647; first compound 0.000632 µM): 0.623 | relative viability (NCI-H647; first compound 0.002 µM): 0.123 | relative viability (NCI-H647; first compound 0.006325 µM): 0.102 | relative viability (NCI-H647; first compound 0.02 µM): 0.082 | relative viability (NCI-H650; first compound 0.0002 µM): 0.657 | relative viability (NCI-H650; first compound 0.000632 µM): 0.341 | relative viability (NCI-H650; first compound 0.002 µM): 0.312 | relative viability (NCI-H650; first compound 0.006325 µM): 0.255 | relative viability (NCI-H650; first compound 0.02 µM): 0.152 | relative viability (NCI-H727; first compound 0.0002 µM): 0.384 | relative viability (NCI-H727; first compound 0.000632 µM): 0.307 | relative viability (NCI-H727; first compound 0.002 µM): 0.22 | relative viability (NCI-H727; first compound 0.006325 µM): 0.211 | relative viability (NCI-H727; first compound 0.02 µM): 0.21 | relative viability (NCI-H838; first compound 0.0002 µM): 0.98 | relative viability (NCI-H838; first compound 0.000632 µM): 1.1 | relative viability (NCI-H838; first compound 0.002 µM): 0.247 | relative viability (NCI-H838; first compound 0.006325 µM): 0.166 | relative viability (NCI-H838; first compound 0.02 µM): 0.145
